In patent US20170119806A1, “[…] LACTONE DERIVATIVES AND METHODS OF MAKING AND USING THEREOF” (OHIO STATE INNOVATION FOUNDATION, priority 2014, published 2017):
Entries after “also recorded” stand apart in the source; their conditions may differ.

What was measured:
[1] = Solubility in aqueous solutions; type: physicochemical
[2] = tested on: HT-29 human colon cancer cells; experiment: Cytotoxicity against HT-29 cells
Experimental: The cytotoxicity of the test compounds was screened against HT-29 cells by a previously reported procedure (Ren Y et al. J. Nat. Prod 2011, 74, 1117-1125). Paclitaxel and etoposide were used as positive controls.
All arylnaphthalene lignans isolated from P. poilanet in the present study and their semi-synthetic analogues were evaluated for their cytotoxicity against HT-29 human colon cancer cells, using paclitaxel as the positive control (Table 6) (Ren Y et al. J. Nat. Prod 2011, 74, 1117-1125).

topo IIα = topo IIα (Homo sapiens, UniProt P11388); experiment: Topoisomerase II assay (DNA cleavage/relaxation); type: biochemical; conditions: 100 μM test compound
Chain of topo IIα (P11388 whole entry): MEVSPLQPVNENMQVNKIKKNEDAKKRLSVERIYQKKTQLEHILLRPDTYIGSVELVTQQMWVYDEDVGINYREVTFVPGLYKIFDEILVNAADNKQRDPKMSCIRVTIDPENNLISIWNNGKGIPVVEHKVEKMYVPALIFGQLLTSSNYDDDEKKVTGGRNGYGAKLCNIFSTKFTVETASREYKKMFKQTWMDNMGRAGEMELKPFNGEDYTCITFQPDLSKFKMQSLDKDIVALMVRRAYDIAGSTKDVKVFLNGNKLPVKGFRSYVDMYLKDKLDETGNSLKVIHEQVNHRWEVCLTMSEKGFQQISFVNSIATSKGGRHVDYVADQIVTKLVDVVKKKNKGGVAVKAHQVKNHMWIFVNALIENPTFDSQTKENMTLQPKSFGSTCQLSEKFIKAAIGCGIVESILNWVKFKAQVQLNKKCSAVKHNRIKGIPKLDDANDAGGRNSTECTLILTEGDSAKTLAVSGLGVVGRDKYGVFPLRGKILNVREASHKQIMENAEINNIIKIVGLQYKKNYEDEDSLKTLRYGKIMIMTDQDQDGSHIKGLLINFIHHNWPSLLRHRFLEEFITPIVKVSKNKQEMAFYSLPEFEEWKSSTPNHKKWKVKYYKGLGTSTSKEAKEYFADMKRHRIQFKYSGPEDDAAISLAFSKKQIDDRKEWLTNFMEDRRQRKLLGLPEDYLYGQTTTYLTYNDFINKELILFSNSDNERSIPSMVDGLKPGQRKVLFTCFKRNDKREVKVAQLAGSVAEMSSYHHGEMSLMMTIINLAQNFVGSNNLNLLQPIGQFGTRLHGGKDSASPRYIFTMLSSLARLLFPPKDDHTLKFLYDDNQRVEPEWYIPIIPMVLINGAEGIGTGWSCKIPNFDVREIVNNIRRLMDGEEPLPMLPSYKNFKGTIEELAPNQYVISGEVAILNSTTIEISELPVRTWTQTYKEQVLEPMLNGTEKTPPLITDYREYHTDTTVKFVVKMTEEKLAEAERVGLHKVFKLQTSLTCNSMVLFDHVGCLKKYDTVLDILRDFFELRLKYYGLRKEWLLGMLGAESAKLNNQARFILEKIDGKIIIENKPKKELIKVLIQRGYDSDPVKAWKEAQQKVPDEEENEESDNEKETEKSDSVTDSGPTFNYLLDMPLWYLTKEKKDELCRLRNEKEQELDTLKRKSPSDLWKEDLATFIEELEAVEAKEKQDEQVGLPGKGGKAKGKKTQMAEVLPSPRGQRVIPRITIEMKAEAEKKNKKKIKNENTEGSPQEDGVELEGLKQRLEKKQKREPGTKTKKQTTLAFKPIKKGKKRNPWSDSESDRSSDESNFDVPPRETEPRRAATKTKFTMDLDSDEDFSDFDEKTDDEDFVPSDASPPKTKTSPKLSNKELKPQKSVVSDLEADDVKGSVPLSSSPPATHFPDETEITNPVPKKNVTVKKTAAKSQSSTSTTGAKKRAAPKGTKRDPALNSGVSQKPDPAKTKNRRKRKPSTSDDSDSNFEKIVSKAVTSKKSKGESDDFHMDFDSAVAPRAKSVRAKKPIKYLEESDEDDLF
Text: The formation of linear DNA was detected by separating the SDS-treated reaction products using ethidium bromide gel electrophoresis and quantified by accounting for the relationship between fluorescence and relative band intensity for open circular (OC), linear (LNR), supercoiled (SC), and relaxed (RLX) configurations of DNA.
Topoisomerase II Assay. […] The formation of linear DNA was detected by separating the SDS-treated reaction products using ethidium bromide gel electrophoresis by a modification of a previously described procedure (Hasinoff B B et al. Mol. Pharmacol. 2005, 67, 937-947). In this system, topo II-mediated catalytic conversion of supercoiled pBR322 DNA to the “relaxed” form of plasmic' DNA can also be observed. A 20 μL cleavage assay reaction mixture contained 250 ng topo IIα protein, 160 ng pBR322 plasmid DNA (NEB, Ipswich, Mass.), 1.0 mM ATP in assay buffer (10 mM Tris-HCl (pH 7.5), 50 mM KCl, 50 mM NaCl, 0.1 mM EDTA, 5 mM MgCl2, 2.5% glycerol), and 100 μM of test compounds or DMSO solvent, as indicated. Assay buffer (17 μL) and test compound/DMSO (1 μL) were mixed and allowed to sit at room temperature for 30 min after which 2 μL of topo IIα was added to initiate the reaction. Tubes were incubated at 37° C. for 15 min, and then quenched with 1% (v/v) SDS/10 mM disodium EDTA/200 mM NaCl. The mixture was treated subsequently with 0.77 mg/mL proteinase K (Sigma) at 55° C. for 60 min to digest the protein, and DNA bands were separated by electrophoresis (18 h at 2 V/cm) on an agarose gel (1.3% w/v) containing 0.7 μg/mL ethidium bromide in TAE buffer pH 8.0 (40 mM Tris base, 0.114% (v/v) glacial acetic acid, 2 mM EDTA). The DNA in the gel was imaged by its fluorescence on a Chemi-Doc XRS+ imager (Bio-Rad, Hercules, Calif.). Linear DNA was quantified by accounting for the relationship between fluorescence and relative band intensity for open circular (QC), linear (LNR), supercoiled (SC), and RLX (relaxed) configurations of DNA (Projan S J et al. Plasmid 1983, 9, 182-190), then calculating % of LNR from the total DNA content in each lane.

NF-κB p65 = experiment: Immunoblotting of p65 and p-p65 in NK cells; type: cell-based, human; conditions: 10 μM TPCK, 10 μM PL-C and IL-12, 18 h
Experimental: (A) Purified primary human NK cells were treated with 5 and 10 μM PL-C for 18 h. The cells were harvested and lysed for immunoblotting using p65 and p-p65 Abs. β-Actin immunoblotting was included as the internal control. Data shown are for treatment with PL-C alone (top panel) or in combination with IL-12 (10 ng/mL) (middle panel) or IL-15 (100 ng/mL) (bottom panel) and are the representative plots of four donors with similar results. Numbers under each lane represent quantification of p-p65 or p65 via densitometry, after normalizing to β-actin. (B) NKL cells were treated, and data are presented as described in (A). Data from one of three independent experiments with similar results are shown. (C) Purified primary human NK (left panel) or NKL cells (right panel) were cotreated with 10 μM PL-C and IL-12 (10 ng/mL) in the presence or absence of the NF-κB inhibitor TPCK (10 μM) for 18 h. Supernatants were assayed for IFN-γ secretion by ELISA (top panel), and cells were harvested and lysed for immunoblotting of p-p65 (bottom panel). Representative data from one of three donors with the similar data (left panel) and the summary of three independent experiments with similar results (right panel) are shown. **p<0.01. Error bars represent SD.
Immunoblotting. Immunoblotting was performed as described previously (Yu J et al. Immunity 2006, 24, 575-590; Yu J et al. Blood 2010, 115, 274-281). […]

human primary NK cells = experiment: IFN-γ production by NK cells (intracellular flow cytometry, ELISA); type: cell-based; conditions: 10 μM TPCK, 10 μM PL-C and IL-12, 18 h
Experimental: (A) Chemical structure of PL-C (phyllanthusmin C, 4), (9) Healthy donor PBMCs (left panel) or enriched NK cells (right panel) were treated with DMSO vehicle control or 10 μM PL-C for 18 h in the presence of […] (10 ng/mL) or IL-15 (100 ng/mL). The cells were harvested and analyzed by intracellular flow cytometry to determine the frequency of IFN-γ^+ cells in CD56^+CD3^− NK cells (n=8 for PBMC and n=5 for enriched NK). (C) Highly purified (≧99.5%) human primary NK cells were treated with 10 μM PL-C for 18 h to determine the levels of IFN-γ secretion by ELISA. IFN-γ secretion from treatment with PL-C alone (left panel) or in combination with IL-12 (10 ng/mL, middle panel) or IL-15 (100 ng/mL, right panel) is shown. (D) Cells were treated as described in (C) and harvested at 12 h, IFNG mRNA expression was assessed by real-time RT-PCR, and the relative IFNG mRNA expression of each treatment was normalized to untreated vehicle control in the same donor. Data are shown as mean±SEM (n=6 in each treatment; error bars represent SEM). *p<0.05, **p<0.01, which denote statistical comparison between the two marked treatment groups (B-D). (E) Highly purified (≧99,5%) primary human NK cells were treated with 10 μM. PL-C in combination with various concentrations of IL-12 (10, 1, and 0.1 ng/mL) or IL-15 (100, 10, and 1 ng/mL) for 24 h to determine the levels of IFN-γ secretion. Representative data from one of three donors with the similar data are shown. *p<0.05, **p<0.01, which denote statistical comparison between the two marked treatment groups and are calculated from data of all tested donors. Error bars represent SD. […]
Isolation of PBMCs and NK cells. […] The purity of enriched NK cells was ≧80% assessed by flow cytometric analysis after staining with CD56-allophycocyanin and CD3-FITC Abs (BD Bio-sciences, San Jose, Calif.). […] The purity of magnetic bead-purified NK cells was ≧99.5%, as determined by the aforementioned flow cytometric analysis. […]

With `COc1cc2c(O[C@@H]3OC[C@H](OC(C)=O)[C@H](OC(C)=O)[C@H]3OC(C)=O)c3c(c(-c4ccc5c(c4)OCO5)c2cc1OC)C(=O)OC3` [Compound 7, 7-O-((2,3,4-tri-O-acetyl)-α-L-arabinopyranosyl) diphyllin] the “solubility in aqueous solutions” value [1] was “insoluble in aqueous solutions”, the EC50 ([2]; read-out: ED50, toxicity towards HT-29 cells, natural samples) was 110 nM and the IC50 ([2]; read-out: IC50, cytotoxicity toward HT-29 cells) was 110 nM. For the same compound, the “topo IIα inhibition (in words)” value (topo IIα) was “not topo Ha inhibitors; also recorded: not topo IIα inhibitors”.

In the case of “N-tosyl-L-phenylalanine chloromethyl ketone [TPCK, reference compound]”, the “effect on PL-C-induced p65 phosphorylation” value (NF-κB p65) is reported as “inhibited PL-C-induced p65 phosphorylation” and the “effect on PL-C-induced IFN-γ secretion” value (human primary NK cells) is reported as “inhibition of PL-C-induced IFN-γ secretion”.
